Test [1] deals with Human α2δ-1 subunit of Cav2.2 calcium channel (Homo sapiens, UniProt P54289). The experiment in a line: Human α2δ-1 subunit of Cav2.2 calcium channel assay ([3H]-gabapentin binding). The following applies: binding to the α2δ-1 subunit of voltage-gated calcium channels expressed as Ki; + also covers inhibition between 1% and 50%. An outline of the steps: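 Membranes enriched in human α2δ-1 incubated with 15 nM [3H]-gabapentin in 10 mM Hepes-KOH pH 7.4, 60 min at 27 °C; nonspecific binding defined with 10 μM pregabalin. Filtration and scintillation counting; % inhibition at 1 or 10 μM, or Ki from five concentrations.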

A further test addresses T1, Human σ1 receptor (Homo sapiens, UniProt Q99720).
T1 construct: expressed in transfected cells; host or cells: HEK-293
Nature of the test: Human σ1 receptor radioligand assay ([3H](+)-pentazocine binding, transfected HEK-293 membranes). The following applies: binding to σ1 receptor expressed as Ki; + also covers inhibition between 1% and 50%; read-out: σ-1 binding. The procedure, abridged: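 Membranes (7 μg) were incubated with 5 nM [3H](+)-pentazocine in 50 mM Tris-HCl pH 8 for 120 min at 37° C. Non-specific binding was defined with 10 μM haloperidol. Values are % inhibition at 1 or 10 μM or Ki from five concentrations, read by filtration and scintillation counting.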

Data on 30 compounds can be found in US12617797B2, “Substituted pyrazolo [1,5-a]pyrimidines having multimodal activity against pain” (ESTEVE PHARMACEUTICALS, S.A., priority 2020, dated 2026).

T1 sequence (Q99720 whole entry): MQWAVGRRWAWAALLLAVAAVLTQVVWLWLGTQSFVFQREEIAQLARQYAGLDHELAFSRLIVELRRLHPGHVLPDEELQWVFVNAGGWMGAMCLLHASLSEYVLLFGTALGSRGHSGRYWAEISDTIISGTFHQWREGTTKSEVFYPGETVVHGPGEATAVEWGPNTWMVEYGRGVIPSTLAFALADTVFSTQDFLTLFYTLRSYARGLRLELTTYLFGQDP
Human α2δ-1 subunit of Cav2.2 calcium channel, sequence (P54289 25-1103): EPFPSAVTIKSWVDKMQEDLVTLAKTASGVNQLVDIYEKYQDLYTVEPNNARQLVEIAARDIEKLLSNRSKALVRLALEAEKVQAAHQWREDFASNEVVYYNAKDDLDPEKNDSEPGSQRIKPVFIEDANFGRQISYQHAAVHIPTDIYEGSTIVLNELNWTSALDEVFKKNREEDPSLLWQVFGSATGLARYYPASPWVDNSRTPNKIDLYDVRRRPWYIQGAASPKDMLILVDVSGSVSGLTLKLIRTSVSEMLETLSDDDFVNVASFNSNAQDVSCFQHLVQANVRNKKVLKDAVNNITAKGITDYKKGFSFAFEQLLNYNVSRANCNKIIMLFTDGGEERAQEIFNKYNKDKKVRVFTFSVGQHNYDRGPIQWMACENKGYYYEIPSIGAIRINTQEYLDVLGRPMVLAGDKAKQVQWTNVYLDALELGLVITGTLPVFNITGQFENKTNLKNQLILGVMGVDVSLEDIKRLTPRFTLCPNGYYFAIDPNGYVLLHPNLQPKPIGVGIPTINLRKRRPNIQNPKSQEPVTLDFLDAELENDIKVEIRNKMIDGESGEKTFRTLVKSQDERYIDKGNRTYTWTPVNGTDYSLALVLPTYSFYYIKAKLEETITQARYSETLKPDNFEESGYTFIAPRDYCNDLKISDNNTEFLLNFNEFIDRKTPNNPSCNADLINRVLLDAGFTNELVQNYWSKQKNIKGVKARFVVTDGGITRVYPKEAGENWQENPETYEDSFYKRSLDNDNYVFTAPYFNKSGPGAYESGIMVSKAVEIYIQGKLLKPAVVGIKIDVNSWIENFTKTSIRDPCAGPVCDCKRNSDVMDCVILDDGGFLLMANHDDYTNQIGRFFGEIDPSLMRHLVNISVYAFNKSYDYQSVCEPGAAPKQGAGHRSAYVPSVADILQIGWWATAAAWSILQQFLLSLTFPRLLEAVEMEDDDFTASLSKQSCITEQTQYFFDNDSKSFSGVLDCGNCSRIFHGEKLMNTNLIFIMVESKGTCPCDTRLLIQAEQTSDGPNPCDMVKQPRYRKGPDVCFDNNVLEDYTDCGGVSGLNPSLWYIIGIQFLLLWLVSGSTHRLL

In the case of `Cc1nn2c(C3CCCN(Cc4ccc(C(F)(F)F)nc4)C3)ccnc2c1CNCC1CCOCC1` (stereo not drawn) [Example 184, 1-(2-Methyl-7-(1-((6-(trifluoromethyl)pyridin-3-yl)methyl)piperidin-3-yl)pyrazolo[1,5-a]pyrimidin-3-yl)-N-((tetrahydro-2H-pyran-4-yl)methyl)methanamine], the values for the Ki (in test [1]; on Human σ1 receptor) were more than 5000 nM and less than 500 nM, respectively.
Consider `CN[C@H]1CCN(c2cc3nccc([C@H]4CCCN(Cc5ccccc5)C4)n3n2)C1` [Example 85, (S)-1-(7-((S)-1-Benzylpiperidin-3-yl)pyrazolo[1,5-a]pyrimidin-2-yl)-N-methylpyrrolidin-3-amine], for which the Ki in test [1] was more than 5000 nM; at Human σ1 receptor it was more than 1000 nM.
As for `Cc1cc2nccc(C3CCCN(Cc4cccc(O)c4)C3)n2n1` (stereo not drawn) [Example 68, 3-((3-(2-Methylpyrazolo[1,5-a]pyrimidin-7-yl)piperidin-1-yl)methyl)phenol], the Ki in test [1] was more than 5000 nM; at Human σ1 receptor, more than 1000 nM.
In the same order, the values of `Cc1nn2c(C3CCCN(CC(C)C)C3)ccnc2c1-c1ccncc1` (stereo not drawn) [Example 71, 7-(1-Isobutylpiperidin-3-yl)-2-methyl-3-(pyridin-4-yl)pyrazolo[1,5-a]pyrimidine] are more than 5000 nM and more than 1000 nM.
As to `Cc1nn2c(C3CCCN(Cc4ccccc4)C3)ccnc2c1-c1ccncc1` (stereo not drawn) [Example 42, 7-(1-Benzylpiperidin-3-yl)-2-methyl-3-(pyridin-4-yl)pyrazolo[1,5-a]pyrimidine], the Ki was 500 to 5000 nM in test [1] and more than 1000 nM at Human σ1 receptor.
In the same order, the values of `Cc1nn2c(C3CCCN(Cc4ccc(Cl)cc4)C3)ccnc2c1CN(C)CC1CCOCC1` (stereo not drawn) [Example 231, 1-(7-(1-(4-Chlorobenzyl)piperidin-3-yl)-2-methylpyrazolo[1,5-a]pyrimidin-3-yl)-N-methyl-N-((tetrahydro-2H-pyran-4-yl)methyl)methanamine] are 500 to 5000 nM and less than 500 nM.
With `Cc1nn2c([C@@H]3CCCN(Cc4ccc(Cl)cc4)C3)ccnc2c1CN[C@@H](C)C1CCOCC1` [Example 225, (S)—N-((7-((R)-1-(4-chlorobenzyl)piperidin-3-yl)-2-methylpyrazolo[1,5-a]pyrimidin-3-yl)methyl)-1-(tetrahydro-2H-pyran-4-yl)ethan-1-amine], the values for the Ki (in test [1]; on Human σ1 receptor) were more than 5000 nM and less than 500 nM, respectively.
In the same order, the values of `N#Cc1cc2nccc(C3CCCN(Cc4ccccc4)C3)n2n1` (stereo not drawn) [Example 91, 7-(1-Benzylpiperidin-3-yl)pyrazolo[1,5-a]pyrimidine-2-carbonitrile] are 500 to 5000 nM and more than 1000 nM.
In the case of `Cc1nn2c([C@@H]3CCCN(Cc4ccc(Cl)cc4)C3)ccnc2c1CNC[C@H]1CCOC1` [Example 202, 1-(7-((R)-1-(4-chlorobenzyl)piperidin-3-yl)-2-methylpyrazolo[1,5-a]pyrimidin-3-yl)-N—(((R)-tetrahydrofuran-3-yl)methyl)methanamine], the Ki (in test [1]; on Human σ1 receptor) was less than 500 nM throughout.
As for `CC(=O)Nc1nn2c(C3CCCN(Cc4ccccc4)C3)ccnc2c1C` (stereo not drawn) [Example 9, N-(7-(1-Benzylpiperidin-3-yl)-3-methylpyrazolo[1,5-a]pyrimidin-2-yl)acetamide], the Ki in test [1] was more than 5000 nM; at Human σ1 receptor it was more than 1000 nM.
Turning to `Cc1nn2c([C@@H]3CCCN(Cc4ccc(Cl)cc4)C3)ccnc2c1CN(C)CC1CC1` [Example 227, (R)-1-(7-(1-(4-Chlorobenzyl)piperidin-3-yl)-2-methylpyrazolo[1,5-a]pyrimidin-3-yl)-N-(cyclopropylmethyl)-N-methylmethanamine], the Ki in test [1] was more than 5000 nM; on Human σ1 receptor it was less than 500 nM.
As for `Cc1nn2c(C3CCCN(Cc4ccccc4)C3)ccnc2c1-c1ccnc(C(F)(F)F)c1` (stereo not drawn) [Example 53, 7-(1-Benzylpiperidin-3-yl)-2-methyl-3-(2-(trifluoromethyl)pyridin-4-yl)pyrazolo[1,5-a]pyrimidine], the Ki in test [1] is 500 to 5000 nM; at Human σ1 receptor, more than 1000 nM.
In the same order, the values of `Clc1cccc(CN2CCCC(c3ccnc4cc(Br)nn34)C2)c1` (stereo not drawn) [Example 111, 2-Bromo-7-(1-(3-chlorobenzyl)piperidin-3-yl)pyrazolo[1,5-a]pyrimidine] are more than 5000 nM and more than 1000 nM.
For `Cc1nn2c(C3CCCN(Cc4ccccc4)C3)ccnc2c1CN` (stereo not drawn) [Example 99, (7-(1-Benzylpiperidin-3-yl)-2-methylpyrazolo[1,5-a]pyrimidin-3-yl)methanamine] the same measures were 500 to 5000 nM and more than 1000 nM.
For `CCCCN1CCCC(c2ccnc3cc(C)nn23)C1` (stereo not drawn) [Example 64, 7-(1-Butylpiperidin-3-yl)-2-methylpyrazolo[1,5-a]pyrimidine] the same measures were more than 5000 nM and less than 500 nM.
As for `Cc1nn2c(C3CCCN(Cc4ccc(Cl)cc4)C3)ccnc2c1CNCc1ccncc1` (stereo not drawn) [Example 148, 1-(7-(1-(4-Chlorobenzyl)piperidin-3-yl)-2-methylpyrazolo[1,5-a]pyrimidin-3-yl)-N-(pyridin-4-ylmethyl)methanamine], the Ki in test [1] is 500 to 5000 nM; on Human σ1 receptor it was less than 500 nM.
With `c1ccc(CN2CCCC(c3ccnc4c(-c5ccccc5)cnn34)C2)cc1` (stereo not drawn) [Example 35, 7-(1-Benzylpiperidin-3-yl)-3-phenylpyrazolo[1,5-a]pyrimidine], the Ki is more than 5000 nM in test [1] and 500 to 1000 nM on Human σ1 receptor.
Turning to `Cc1cc2nccc(C3CCCN(Cc4ccccn4)C3)n2n1` (stereo not drawn) [Example 66, 2-Methyl-7-(1-(pyridin-2-ylmethyl)piperidin-3-yl)pyrazolo[1,5-a]pyrimidine], the values for the Ki (in test [1]; on Human σ1 receptor) were more than 5000 nM and more than 1000 nM, respectively.
Regarding `Cc1nn2c(C3CCCN(Cc4ccc(Cl)cc4)C3)ccnc2c1CNCC1CCN(C(N)=O)CC1` (stereo not drawn) [Example 218, 4-((((7-(1-(4-Chlorobenzyl)piperidin-3-yl)-2-methylpyrazolo[1,5-a]pyrimidin-3-yl)methyl)amino)methyl)piperidine-1-carboxamide], the results for the Ki (in test [1]; at Human σ1 receptor) were 500 to 5000 nM and 500 to 1000 nM, respectively.
In the same order, the values of `Cc1nn2c(C3CCCN(Cc4ccccc4)C3)ccnc2c1N1CCCC1` (stereo not drawn) [Example 89, 7-(1-Benzylpiperidin-3-yl)-2-methyl-3-(pyrrolidin-1-yl)pyrazolo[1,5-a]pyrimidine] are 500 to 5000 nM and 500 to 1000 nM.
For `Cc1nn2c(C3CCCN(Cc4ccc(Cl)cc4)C3)ccnc2c1CNCCOC(C)C` (stereo not drawn) [Example 162, N-((7-(1-(4-Chlorobenzyl)piperidin-3-yl)-2-methylpyrazolo[1,5-a]pyrimidin-3-yl)methyl)-2-isopropoxyethan-1-amine] the same measures were 500 to 5000 nM and less than 500 nM.
Regarding `Cc1nnc(CNCc2c(C)nn3c(C4CCCN(Cc5ccc(Cl)cc5)C4)ccnc23)o1` (stereo not drawn) [Example 152, 1-(7-(1-(4-Chlorobenzyl)piperidin-3-yl)-2-methylpyrazolo[1,5-a]pyrimidin-3-yl)-N-((5-methyl-1,3,4-oxadiazol-2-yl)methyl)methanamine], the Ki in test [1] was more than 5000 nM; on Human σ1 receptor, 500 to 1000 nM.
Take `CCNCc1c(C)nn2c(C3CCCN(Cc4ccc(Cl)cc4)C3)ccnc12` (stereo not drawn) [Example 155, N-((7-(1-(4-Chlorobenzyl)piperidin-3-yl)-2-methylpyrazolo[1,5-a]pyrimidin-3-yl)methyl)ethanamine]: the Ki in test [1] was 500 to 5000 nM; on Human σ1 receptor, less than 500 nM.
In the same order, the values of `Cc1nn2c(C3CCCN(Cc4ccc(C(F)(F)F)cc4)C3)ccnc2c1-c1ccncc1` (stereo not drawn) [Example 126, 2-Methyl-3-(pyridin-4-yl)-7-(1-(4-(trifluoromethyl)benzyl)piperidin-3-yl)pyrazolo[1,5-a]pyrimidine] are more than 5000 nM and more than 1000 nM.
Regarding `Cc1nn2c([C@@H]3CCCN(Cc4ccc(Cl)cc4)C3)ccnc2c1CN[C@@H](C)c1ccccc1` [Example 197, (S)—N-((7-((R)-1-(4-chlorobenzyl)piperidin-3-yl)-2-methylpyrazolo[1,5-a]pyrimidin-3-yl)methyl)-1-phenylethan-1-amine], the Ki in test [1] is 500 to 5000 nM; on Human σ1 receptor, less than 500 nM.
In the same order, the values of `Cc1nn2c(C3CCCN(Cc4ccccc4)C3)ccnc2c1-c1ccnc(F)c1` (stereo not drawn) [Example 50, 7-(1-Benzylpiperidin-3-yl)-3-(2-fluoropyridin-4-yl)-2-methylpyrazolo[1,5-a]pyrimidine] are 500 to 5000 nM and more than 1000 nM.
For `Cc1nn2c(C3CCCN(Cc4ccc(Cl)cc4)C3)ccnc2c1-c1cnc(N)nc1` (stereo not drawn) [Example 131, 5-(7-(1-(4-Chlorobenzyl)piperidin-3-yl)-2-methylpyrazolo[1,5-a]pyrimidin-3-yl)pyrimidin-2-amine] the same measures were more than 5000 nM and more than 1000 nM.
For `Cc1cc(C2CCCN(Cc3ccccc3)C2)n2nc(C)c(-c3ccncc3)c2n1` (stereo not drawn) [Example 59, 7-(1-Benzylpiperidin-3-yl)-2,5-dimethyl-3-(pyridin-4-yl)pyrazolo[1,5-a]pyrimidine] the same measures were 500 to 5000 nM and more than 1000 nM.
Consider `CN(C)c1ccc(-c2cc3nccc(C4CCCN(Cc5ccccc5)C4)n3n2)cc1` (stereo not drawn) [Example 22, 4-(7-(1-Benzylpiperidin-3-yl)pyrazolo[1,5-a]pyrimidin-2-yl)-N,N-dimethylaniline], for which the Ki is 500 to 5000 nM in test [1] and more than 1000 nM at Human σ1 receptor.
In the same order, the values of `Cc1nn2c([C@H]3CCCN(Cc4ccc(Cl)cc4)C3)ccnc2c1CN[C@@H](C)c1ccccc1` [Example 198, (S)—N-((7-((S)-1-(4-chlorobenzyl)piperidin-3-yl)-2-methylpyrazolo[1,5-a]pyrimidin-3-yl)methyl)-1-phenylethan-1-amine] are less than 500 nM and less than 500 nM.
